Test results published in patent publication US11649460B2, “DNA aptamers, method for inhibiting human galectin-1 and method of treating a mammal in need thereof” (priority 2020, dated 2023).
Where two headings read alike, the source gives them in different places.

Columns and labels:
[1] = tested on: DU-145 human prostate carcinoma cell line; assay: SRB cell proliferation (cytotoxicity) assay, DU-145; settings: for Relative cell viability (%): human
From the text: (§1) The XLSTAT software was used to determine the IC50, TGI and LC50 values using the four-parameter logistic curve equation.

[2] = tested on: MCF-7 human breast adenocarcinoma cell line; assay: SRB cell proliferation (cytotoxicity) assay, MCF-7
From the text: as §1

[3] = tested on: HCT 116 human colorectal carcinoma; assay: SRB cell proliferation (cytotoxicity) assay, HCT 116
From the text: as §1

[4] = tested on: A-375 human malignant melanoma; assay: SRB cell proliferation (cytotoxicity) assay, A-375
From the text: as §1

[5] = tested on: NHF human foreskin skin fibroblasts; assay: SRB cell proliferation (cytotoxicity) assay, NHF; settings: for IC50: read-out: IC50: Concentration to inhibit 50% of cell growth
From the text: as §1

[6] = tested on: HT-29 human colorectal adenocarcinoma; assay: SRB cell proliferation (cytotoxicity) assay, HT-29
From the text: as §1

[7] = tested on: SK-BR-3 human breast adenocarcinoma; assay: SRB cell proliferation (cytotoxicity) assay, SK-BR-3
From the text: as §1

[8] = target: T1, hGal1-induced hemagglutination of red blood cells (Homo sapiens, UniProt P09382); assay: Hemagglutination inhibition assay, native hGal1; format: cell-based; settings: native Gal1 5 μM
T1 construct: 42; made in house; host or cells: E. coli strain M-15
T1 sequence (P09382 2-135): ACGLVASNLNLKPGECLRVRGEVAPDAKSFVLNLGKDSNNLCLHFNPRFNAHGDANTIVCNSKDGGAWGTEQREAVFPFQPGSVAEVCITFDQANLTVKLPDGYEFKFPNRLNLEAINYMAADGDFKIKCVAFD
Protocol: Hemagglutination Inhibition Assay
Hemagglutination assay was adopted to assess the capacity of SEQ ID NO.: 4 in inhibiting the lectin cross-linking aggregation of red blood cells (RBC), as previously described. Briefly, using a 96-well microplates appropriate amounts of 5 μM hGal1 were blended with 50 μL of aptamer in an increasing concentrations manner (0-40 μM) in PBS 1× buffer (pH 7.4). Following, 50 μL of 3% purified type B+ RBC in PBS. After 2 h of room temperature incubation, the plate was photographed and the hemagglutination area was estimated by area calculator Sketchandcalc™ and the results were expressed as relative agglutination.

in vitro = settings: human
From the text: as §1

[9] = tested on: OVCAR-3 human ovarian adenocarcinoma cell line; assay: SRB cell proliferation (cytotoxicity) assay, OVCAR-3; settings: for Relative cell viability (%): human
From the text: as §1

OVCAR-3 cell line = assay: Synergism test with cisplatin, OVCAR-3; settings: cisplatin 3 μM
From the text: For the analysis of cell proliferation, the non-clonogenic method of sulforodamine B (SRB) was used, a protein dye that binds to the basic amino acid residues of cell proteins that were viable at the time of the fixation process. Therefore, the greater the amount of SRB bound per compartment, the less the antiproliferative activity of the item under study.

[10] = target: T2, native human galectin-1 (hGal1) (Homo sapiens, UniProt P09382); assay: Thermofluor thermal shift assay (TSA), native galectin-1; format: binding; settings: 5 μM protein
T2 construct: 42; made in house; host or cells: E. coli strain M-15
T2 sequence (P09382 2-135): as above
Protocol: In an attempt to screen among the selected aptamers that better interact with hGal1, differential scanning fluorimetry (Termofluor) was used to characterize their binding to its target. Among all the selected aptamers, SEQ ID NO.: 4 seemed to have a more intense effect on hGal1 thermoshift and so was chosen for further analysis. The selected aptamer had its interaction evaluated with native and alkylated galectin-1. […] The respective thermal displacements were evaluated as a function of an increasing concentration of SEQ ID NO.: 4 (FIG. 1).
Thermofluor experiments were performed on an Mx3005 RT-PCR (Agilent Technologies) using the SYPRO® Orange dye (492/610 nm) (Invitrogen) as fluorescent probe. The purified (native and alkylated) protein samples were incubated for 30 min with increasing concentration of the molecules of interest, centrifuged, and submitted to the thermal denaturation assay, totalizing four distinct experiments. In a 96-well plate (Agilent Technologies) 20 μl of the reaction containing 5 μM of each protein in buffer PBS 1× and 5× SYPRO® Orange were heated from 25° C. to 95° C. at a rate of 1° C./min. The experimental result was processed as in the protocol previously described and the melting temperature was obtained using GraphPad Prism software (www.graphpad.com).

[11] = read-out: IC50: Concentration to inhibit 50% of cell growth, DU-145
[12] = read-out: IC50: Concentration to inhibit 50% of cell growth, HT-29
[13] = read-out: IC50: Concentration to inhibit 50% of cell growth, SK-BR-3
[14] = Homo sapiens, DU-145, read-out: Relative cell viability (%)
[15] = Homo sapiens, MCF7, read-out: Relative cell viability (%)
[16] = Homo sapiens, HCT-116, read-out: Relative cell viability (%)
[17] = Homo sapiens, A-375, read-out: Relative cell viability (%)
[18] = Homo sapiens, HT-29, read-out: Relative cell viability (%)
[19] = Homo sapiens, SK-BR-3, read-out: Relative cell viability (%)
[20] = Homo sapiens, OVCAR-3, read-out: Relative cell viability (%)

N.N.[Cl][Pt][Cl] [Cisplatin, reference compound]
TGI: Concentration for total inhibition of cell growth ([1]; DU-145): <3.906 µM
IC50 [1, 11]: < 3.91 µM
TGI: Concentration for total inhibition of cell growth ([2]; MCF-7): 35.869 µM
TGI: Concentration for total inhibition of cell growth ([3]; HCT 116): 15.550 µM
TGI: Concentration for total inhibition of cell growth ([4]; A-375): 7.96 µM
TGI: Concentration for total inhibition of cell growth ([5]; NHF): 16.139 µM
IC50 ([5]; NHF): 4.77 µM
TGI: Concentration for total inhibition of cell growth ([6]; HT-29): 64.977 µM
IC50 [6, 12]: < 3.91 µM
TGI: Concentration for total inhibition of cell growth ([7]; SK-BR-3): 4.491 µM
IC50 [7, 13]: < 3.91 µM

OC[C@H]1O[C@@H](O[C@H]2[C@H](O)[C@@H](O)C(O)O[C@@H]2CO)[C@H](O)[C@@H](O)[C@H]1O (some centres unmarked) [Lactose, reference compound]
inhibitory effect on galectin-induced hemagglutination [8]: inhibited hemagglutinating activity

CC(=O)O[C@H]1C(=O)[C@@]2(C)[C@H]([C@H](OC(=O)c3ccccc3)[C@]3(O)C[C@H](OC(=O)[C@H](O)[C@@H](NC(=O)c4ccccc4)c4ccccc4)C(C)=C1C3(C)C)[C@]1(OC(C)=O)CO[C@@H]1C[C@@H]2O [Paclitaxel, reference compound]
TGI: Concentration for total inhibition of cell growth ([1]; DU-145): 0.013021 µM
IC50 ([1]; Homo sapiens, DU-145, read-out: IC50: Concentration to inhibit 50% of cell growth): 0.0072 µM
viability at 0.000781 µM [1, 14]: 104%
viability at 0.001562 µM [1, 14]: 95.5%
viability at 0.003125 µM [1, 14]: 97.3%
viability at 0.00625 µM [1, 14]: 58.9%
viability at 0.0125 µM [1, 14]: 8.4%
Relative cell viability (%) ([1]; 0.05 µM): −15.7%
Relative cell viability (%) ([1]; 0.1 µM): −25.6%
IC50 ([2]; Homo sapiens, MCF7, read-out: IC50: Concentration to inhibit 50% of cell growth): 0.00282 µM
viability at 0.000781 µM [2, 15]: 87.9%
viability at 0.001562 µM [2, 15]: 65.5%
viability at 0.003125 µM [2, 15]: 47.6%
viability at 0.00625 µM [2, 15]: 36.9%
viability at 0.0125 µM [2, 15]: 29.3%
viability at 0.05 µM [2, 15]: 23.6%
viability at 0.1 µM [2, 15]: 24.7%
IC50 ([3]; Homo sapiens, HCT-116, read-out: IC50: Concentration to inhibit 50% of cell growth): 0.00646 µM
viability at 0.000781 µM [3, 16]: 96.2%
viability at 0.001562 µM [3, 16]: 96.6%
viability at 0.003125 µM [3, 16]: 90.9%
viability at 0.00625 µM [3, 16]: 50.6%
viability at 0.0125 µM [3, 16]: 17.5%
viability at 0.05 µM [3, 16]: 3.4%
viability at 0.1 µM [3, 16]: 4.7%
viability at 0.000781 µM [4, 17]: 117%
viability at 0.001562 µM [4, 17]: 96.3%
viability at 0.003125 µM [4, 17]: 99.4%
viability at 0.00625 µM [4, 17]: 98.8%
viability at 0.0125 µM [4, 17]: 113%
viability at 0.05 µM [4, 17]: 91.2%
viability at 0.1 µM [4, 17]: 69%
CC50 (in vitro): > 0.1 µM
viability at 0.000781 µM (in vitro): 86.6%
viability at 0.001562 µM (in vitro): 79.7%
viability at 0.003125 µM (in vitro): 72.1%
viability at 0.00625 µM (in vitro): 61.9%
viability at 0.0125 µM (in vitro): 58.6%
viability at 0.05 µM (in vitro): 28.7%
viability at 0.1 µM (in vitro): 16.9%
IC50 ([5]; Homo sapiens, Skin fibroblast): 0.0187 µM
TGI: Concentration for total inhibition of cell growth ([5]; NHF): >0.1 µM
IC50 ([6]; Homo sapiens, HT-29, read-out: IC50: Concentration to inhibit 50% of cell growth): 0.00631 µM
viability at 0.000781 µM [6, 18]: 102%
viability at 0.001562 µM [6, 18]: 99.1%
viability at 0.003125 µM [6, 18]: 80.8%
viability at 0.00625 µM [6, 18]: 48.8%
viability at 0.0125 µM [6, 18]: 24.5%
viability at 0.05 µM [6, 18]: 6.7%
viability at 0.1 µM [6, 18]: 5%
IC50 ([7]; Homo sapiens, SK-BR-3, read-out: IC50: Concentration to inhibit 50% of cell growth): 0.0148 µM
viability at 0.000781 µM [7, 19]: 113%
viability at 0.001562 µM [7, 19]: 113%
viability at 0.003125 µM [7, 19]: 119%
viability at 0.00625 µM [7, 19]: 106%
viability at 0.0125 µM [7, 19]: 68.3%
viability at 0.05 µM [7, 19]: 12.3%
viability at 0.1 µM [7, 19]: 13.9%
IC50 ([9]; Homo sapiens, OVCAR-3, read-out: IC50: Concentration to inhibit 50% of cell growth): 0.01 µM
CC50 ([9]; Homo sapiens, OVCAR-3, read-out: LC50: Concentration for 50% cell death): 0.0351 µM
viability at 0.000781 µM [9, 20]: 96.9%
viability at 0.001562 µM [9, 20]: 90.1%
viability at 0.003125 µM [9, 20]: 89.6%
viability at 0.00625 µM [9, 20]: 69.6%
viability at 0.0125 µM [9, 20]: 31.1%
TGI: Concentration for total inhibition of cell growth ([9]; OVCAR-3): 0.015402 µM
Relative cell viability (%) ([9]; 0.05 µM): −45.1%
Relative cell viability (%) ([9]; 0.1 µM): −57.5%

B1: AGCTGACACAGCAGGTTGGTGCGCCCAATACAGGCGCAGTATCTGTCCGTGGGCCGGGTAAAAGTTACGGACCGAGTCGAGCAATCTCGAAAT (nucleic acid)
DNA: AGCTGACACAGCAGGTTGGTGCGCCCAATACAGGCGCAGTATCTGTCCGTGGGCCGGGTAAAAGTTACGGACCGAGTCGAGCAATCTCGAAAT
modifications: chemistry not given here
TGI: Concentration for total inhibition of cell growth ([1]; DU-145): 42.423 µM
IC50 [1, 11]: 23.4 µM
CC50 ([1]; read-out: LC50: Concentration for 50% cell death, DU-145): 83.5 µM
TGI: Concentration for total inhibition of cell growth ([2]; MCF-7): 48.434 µM
IC50 ([2]; read-out: IC50: Concentration to inhibit 50% of cell growth, MCF-7): 17.8 µM
CC50 ([2]; read-out: LC50: Concentration for 50% cell death, MCF-7): 84.1 µM
effect on the profile of antiproliferative activity in association with cisplatin (OVCAR-3 cell line): enhances
inhibitory effect on galectin-induced hemagglutination [8]: better effect
TGI: Concentration for total inhibition of cell growth ([3]; HCT 116): 41.730 µM
IC50 ([3]; read-out: IC50: Concentration to inhibit 50% of cell growth, HCT 116): 16 µM
CC50 ([3]; read-out: LC50: Concentration for 50% cell death, HCT 116): 96.3 µM
TGI: Concentration for total inhibition of cell growth ([4]; A-375): 36.326 µM
IC50 ([4]; read-out: IC50: Concentration to inhibit 50% of cell growth, A-375): 26.3 µM
CC50 ([4]; read-out: LC50: Concentration for 50% cell death, A-375): 51.5 µM
TGI: Concentration for total inhibition of cell growth ([5]; NHF): 53.452 µM
IC50 ([5]; NHF): 33.7 µM
CC50 ([5]; read-out: LC50: Concentration for 50% cell death, NHF): 93.6 µM
TGI: Concentration for total inhibition of cell growth ([6]; HT-29): 30.010 µM
IC50 [6, 12]: 14.6 µM
CC50 ([6]; read-out: LC50: Concentration for 50% cell death, HT-29): 60.3 µM
TGI: Concentration for total inhibition of cell growth ([7]; SK-BR-3): 37.529 µM
IC50 [7, 13]: 24.3 µM
CC50 ([7]; read-out: LC50: Concentration for 50% cell death, SK-BR-3): 60.2 µM
TGI: Concentration for total inhibition of cell growth ([9]; OVCAR-3): 37.711 µM
IC50 ([9]; read-out: IC50: Concentration to inhibit 50% of cell growth, OVCAR-3): 11.1 µM
CC50 ([9]; read-out: LC50: Concentration for 50% cell death, OVCAR-3): 87.8 µM
variation of denaturation temperature (Tm) of native hGal1 [10]: greater variation
